For orientation: IC50 means the concentration needed to halve the response being measured.

Common to all, as to assay type: biochemical
Assay [1] addresses JAK2 (Homo sapiens (Human), UniProt O60674). The experiment in a line: JAK Caliper Enzyme Assay at 1 mM ATP, JAK2. An outline of the steps: (§1)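 Human recombinant kinase domain + fluorescently labelled synthetic peptide, 1 mM ATP, RT; enzyme level/time set for 20–30% phosphorylation. EDTA stop. LabChip separation, peak-height % conversion, % effect vs plate controls.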
Assay [2] deals with JAK1 (Homo sapiens (Human), UniProt P23458). The experiment in a line: JAK Caliper Enzyme Assay at 1 mM ATP, JAK1. In short, it runs like this:
(§2)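 IC50 (nM) derived from percent conversion of fluorescently labelled peptide, measured by Caliper LabChip mobility-shift separation after EDTA stop. Each JAK family kinase domain (human, recombinant) run at 1 mM ATP and room temperature, conditions set to 20-30% product; DMSO wells define uninhibited baseline.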

Assay [3] concerns the target JAK3 (Homo sapiens (Human), UniProt P52333). As to the kind of experiment: JAK Caliper Enzyme Assay at 1 mM ATP, JAK3. In short, it runs like this:
as §2

The target in assay [4] is TYK2 (Homo sapiens (Human), UniProt P29597). The experiment in a line: JAK Caliper Enzyme Assay at 1 mM ATP, TYK2. An outline of the steps: as §1
TYK2, sequence (P29597 897-1176): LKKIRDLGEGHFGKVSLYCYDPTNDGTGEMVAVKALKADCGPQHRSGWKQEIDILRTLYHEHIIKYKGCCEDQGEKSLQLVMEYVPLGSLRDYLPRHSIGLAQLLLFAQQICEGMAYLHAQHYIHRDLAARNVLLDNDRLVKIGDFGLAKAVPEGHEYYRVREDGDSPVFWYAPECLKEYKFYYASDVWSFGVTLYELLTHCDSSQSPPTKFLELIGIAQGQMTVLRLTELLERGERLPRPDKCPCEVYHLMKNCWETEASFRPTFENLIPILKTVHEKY

JAK1, sequence (P23458 875-1153): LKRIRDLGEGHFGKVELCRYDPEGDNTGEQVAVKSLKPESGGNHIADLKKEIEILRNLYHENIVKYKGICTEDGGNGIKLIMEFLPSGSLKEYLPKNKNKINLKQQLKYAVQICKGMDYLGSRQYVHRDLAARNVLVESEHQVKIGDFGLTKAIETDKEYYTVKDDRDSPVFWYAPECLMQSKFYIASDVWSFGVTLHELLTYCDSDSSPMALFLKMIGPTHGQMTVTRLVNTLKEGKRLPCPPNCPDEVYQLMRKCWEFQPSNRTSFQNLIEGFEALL
JAK3, sequence (P52333 822-1111): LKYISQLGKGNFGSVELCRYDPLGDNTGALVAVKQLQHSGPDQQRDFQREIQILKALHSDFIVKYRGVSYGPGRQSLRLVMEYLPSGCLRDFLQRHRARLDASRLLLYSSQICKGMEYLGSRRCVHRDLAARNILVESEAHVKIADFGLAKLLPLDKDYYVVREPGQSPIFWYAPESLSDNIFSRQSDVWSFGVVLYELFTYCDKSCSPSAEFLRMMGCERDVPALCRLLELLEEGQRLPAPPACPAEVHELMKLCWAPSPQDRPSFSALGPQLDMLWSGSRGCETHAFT
JAK2, sequence (O60674 849-1124): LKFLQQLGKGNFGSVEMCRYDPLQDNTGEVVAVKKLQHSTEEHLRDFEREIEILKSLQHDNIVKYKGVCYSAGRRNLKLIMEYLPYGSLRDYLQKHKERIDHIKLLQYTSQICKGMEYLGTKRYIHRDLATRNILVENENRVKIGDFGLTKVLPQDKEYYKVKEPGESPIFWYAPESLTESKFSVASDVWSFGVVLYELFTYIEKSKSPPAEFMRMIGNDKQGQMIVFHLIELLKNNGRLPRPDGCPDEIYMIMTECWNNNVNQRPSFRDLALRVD

As for `Cn1nc(CO)cc1-c1cc2ncccc2c(-c2ccn([C@]3(CC#N)C[C@@H](C#N)C3)n2)n1` [Example 60, trans-3-(cyanomethyl)-3-(3-{7-[3-(hydroxymethyl)-1-methyl-1H-pyrazol-5-yl]-1,6-naphthyridin-5-yl}-1H-pyrazol-1-yl)cyclobutanecarbonitrile], the IC50 was 0.915 µM in assay [1], 3.85 µM in assay [2], more than 10 µM in assay [3] and 0.19 µM in assay [4].
As to `Cn1nc(CO)cc1-c1cc2ncccc2c(-c2ccn([C@]3(CC#N)C[C@H](C#N)C3)n2)n1` [Example 61, cis-3-(cyanomethyl)-3-(3-{7-[3-(hydroxymethyl)-1-methyl-1H-pyrazol-5-yl]-1,6-naphthyridin-5-yl}-1H-pyrazol-1-yl)cyclobutanecarbonitrile], the IC50 in assay [1] is 0.123 µM; in assay [2], 0.521 µM; in assay [3], more than 10 µM; in assay [4] it was 0.039 µM.
Take `CCN1CC(CC#N)(n2ccc(-c3nc(-c4cc(N)n(C)n4)cc4ncccc34)n2)C1` [Example 64, (3-{3-[7-(5-amino-1-methyl-1H-pyrazol-3-yl)-1,6-naphthyridin-5-yl]-1H-pyrazol-1-yl}-1-ethylazetidin-3-yl)acetonitrile]: the IC50 in assay [1] was 5.9 µM; in assay [2], more than 10 µM; in assay [3], more than 10 µM; in assay [4] it was 0.44 µM.
With `Cn1nc(-c2cc3ncccc3c(-c3ccn([C@]4(CC#N)C[C@](C)(C#N)C4)n3)n2)cc1N` [Example 67, cis-3-{3-[7-(5-amino-1-methyl-1H-pyrazol-3-yl)-1,6-naphthyridin-5-yl]-1H-pyrazol-1-yl}-3-(cyanomethyl)-1-methylcyclobutanecarbonitrile], the IC50 in assay [1] was 0.246 µM; in assay [2] it was 2.18 µM; in assay [3], more than 10 µM; in assay [4] it was 0.039 µM.
With `Cn1nc(-c2cc3ncccc3c(-c3ccn([C@]4(CC#N)C[C@@](C)(C#N)C4)n3)n2)cc1N` [Example 68, trans-3-{3-[7-(5-amino-1-methyl-1H-pyrazol-3-yl)-1,6-naphthyridin-5-yl]-1H-pyrazol-1-yl}-3-(cyanomethyl)-1-methylcyclobutanecarbonitrile], the IC50 in assay [1] was 4.33 µM; in assay [2], more than 10 µM; in assay [3], more than 10 µM; in assay [4] it was 1.59 µM.
As for `CNc1cc(-c2cc3ncccc3c(-c3ccn([C@]4(CC#N)C[C@H](C#N)C4)n3)n2)nn1C` [Example 69, cis-3-(cyanomethyl)-3-(3-{7-[1-methyl-5-(methylamino)-1H-pyrazol-3-yl]-,6-naphthyridin-5-yl}-1H-pyrazol-1-yl)cyclobutanecarbonitrile], the IC50 in assay [1] is 0.556 µM; in assay [2], 3.4 µM; in assay [3], more than 10 µM; in assay [4] it was 0.158 µM.
Regarding `CNc1cc(-c2cc3ncccc3c(-c3ccn([C@]4(CC#N)C[C@@H](C#N)C4)n3)n2)nn1C` [Example 70, trans-3-(cyanomethyl)-3-(3-{7-[1-methyl-5-(methylamino)-1H-pyrazol-3-yl]-1,6-naphthyridin-5-yl}-1H-pyrazol-1-yl)cyclobutanecarbonitrile], the IC50 in assay [1] was 3.5 µM; in assay [2], more than 10 µM; in assay [3] it was more than 10 µM; in assay [4], 0.661 µM.
For `Cn1nc(-c2cc3ncccc3c(-c3ccn([C@]4(CC#N)C[C@@H](C#N)C4)n3)n2)cc1CN` [Example 71, trans-3-(3-{7-[5-(aminomethyl)-1-methyl-1H-pyrazol-3-yl]-1,6-naphthyridin-5-yl}-1H-pyrazol-1-yl)-3-(cyanomethyl)cyclobutanecarbonitrile], the IC50 in assay [1] was found to be 0.205 µM; in assay [2], 3.72 µM; in assay [3], 7.93 µM; in assay [4], 0.109 µM.
As to `N#CCC1(n2ccc(-c3nc(-c4cc5n(n4)CCNC5)cc4ncccc34)n2)CC(C#N)C1` (stereo not drawn) [Example 72, cis-3-(cyanomethyl)-3-{3-[7-(4,5,6,7-tetrahydropyrazolo[1,5-a]pyrazin-2-yl)-1,6-naphthyridin-5-yl]-1H-pyrazol-1-yl}cyclobutanecarbonitrile], the IC50 was 0.048 µM in assay [1], 0.676 µM in assay [2], 5.1 µM in assay [3] and 0.028 µM in assay [4].
`N#CC[C@]1(n2ccc(-c3nc(-c4cc5n(n4)CCNC5)cc4ncccc34)n2)C[C@H](C#N)C1` [Example 73, trans-3-(cyanomethyl)-3-{3-[7-(4,5,6,7-tetrahydropyrazolo[1,5-a]pyrazin-2-yl)-1,6-naphthyridin-5-yl]-1H-pyrazol-1-yl}cyclobutanecarbonitrile]: the half-maximal inhibitory concentration (IC50) in assay [1] was 0.206 µM; in assay [2], 4.63 µM; in assay [3] it was more than 10 µM; in assay [4], 0.033 µM.
On to `N#CCC1(n2ccc(-c3nc(-c4cn[nH]c4)cc4ncccc34)n2)CN(CC(F)(F)F)C1` [Example 74, [3-{3-[7-(1H-pyrazol-4-yl)-1,6-naphthyridin-5-yl]-1H-pyrazol-1-yl}-1-(2,2,2-trifluoroethyl)azetidin-3-yl]acetonitrile], for which the IC50 in assay [1] stood at 0.267 µM; in assay [2] it was 0.217 µM; in assay [3], 9.65 µM; in assay [4] it was 0.013 µM.
On to `CS(=O)(=O)N1CC(CC#N)(n2ccc(-c3nc(-c4cn[nH]c4)cc4ncccc34)n2)C1` [Example 75, [1-(methylsulfonyl)-3-{3-[7-(1H-pyrazol-4-yl)-1,6-naphthyridin-5-yl]-1H-pyrazol-1-yl}azetidin-3-yl]acetonitrile], for which the IC50 was 0.444 µM in assay [1], 0.679 µM in assay [2], more than 10 µM in assay [3] and 0.046 µM in assay [4].
For `N#CCC1(n2ccc(-c3nc(-c4cn[nH]c4)cc4ncccc34)n2)CC(C#N)C1` (stereo not drawn) [Example 76, cis-3-(cyanomethyl)-3-{3-[7-(1H-pyrazol-4-yl)-1,6-naphthyridin-5-yl]-1H-pyrazol-1-yl}cyclobutanecarbonitrile], the IC50 came to 0.033 µM in assay [1], 0.035 µM in assay [2], 1.54 µM in assay [3] and 0.007 µM in assay [4].
In the case of `N#CC[C@]1(n2ccc(-c3nc(-c4cn[nH]c4)cc4ncccc34)n2)C[C@H](C#N)C1` [Example 77, trans-3-(cyanomethyl)-3-{3-[7-(1H-pyrazol-4-yl)-1,6-naphthyridin-5-yl]-1H-pyrazol-1-yl}cyclobutanecarbonitrile], the IC50 in assay [1] was 0.242 µM; in assay [2], 0.293 µM; in assay [3] it was more than 10 µM; in assay [4], 0.025 µM.
On the same counts, the results for `N#CC[C@H]1C[C@](CC#N)(n2ccc(-c3nc(-c4cn[nH]c4)cc4ncccc34)n2)C1` [Example 79, 2,2′-(trans-1-{3-[7-(1H-pyrazol-4-yl)-1,6-naphthyridin-5-yl]-1H-pyrazol-1-yl}cyclobutane-1,3-diyl)diacetonitrile] are 0.774 µM, 1.05 µM, more than 10 µM and 0.074 µM.
Turning to `CO[C@H]1C[C@@](CC#N)(n2ccc(-c3nc(-c4cn[nH]c4)cc4ncccc34)n2)C1` [Example 80, (cis-3-methoxy-1-{3-[7-(1H-pyrazol-4-yl)-1,6-naphthyridin-5-yl]-1H-pyrazol-1-yl}cyclobutyl)acetonitrile], the IC50 in assay [1] is 0.927 µM; in assay [2], 1.06 µM; in assay [3], more than 10 µM; in assay [4] it was 0.047 µM.
Turning to `CO[C@H]1C[C@](CC#N)(n2ccc(-c3nc(-c4cn[nH]c4)cc4ncccc34)n2)C1` [Example 81, (trans-3-methoxy-1-{3-[7-(1H-pyrazol-4-yl)-1,6-naphthyridin-5-yl]-1H-pyrazol-1-yl}cyclobutyl)acetonitrile], the IC50 in assay [1] is 2.17 µM; in assay [2], 3.09 µM; in assay [3], more than 10 µM; in assay [4], 0.101 µM.
For the compound `CC(C)(O)[C@H]1C[C@@](CC#N)(n2ccc(-c3nc(-c4cn[nH]c4)cc4ncccc34)n2)C1` [Example 82, [cis-3-(2-hydroxpropan-2-yl)-1-{3-[7-(1H-pyrazol-4-yl)-1,6-naphthyridin-5-yl]-1H-pyrazol-1-yl}cyclobutyl]acetonitrile], the IC50 was 2.39 µM in assay [1], 3.58 µM in assay [2], more than 10 µM in assay [3] and 0.418 µM in assay [4].
For the compound `C[C@]1(C#N)C[C@](CC#N)(n2ccc(-c3nc(-c4cn[nH]c4)cc4ncccc34)n2)C1` [Example 83, trans-3-(cyanomethyl)-1-methyl-3-{3-[7-(1H-pyrazol-4-yl)-1,6-naphthyridin-5-yl]-1H-pyrazol-1-yl}cyclobutanecarbonitrile], the IC50 is 2.45 µM in assay [1], 2.24 µM in assay [2], more than 10 µM in assay [3] and 0.41 µM in assay [4].
`C[C@]1(C#N)C[C@@](CC#N)(n2ccc(-c3nc(-c4cn[nH]c4)cc4ncccc34)n2)C1` [Example 84, cis-3-(cyanomethyl)-1-methyl-3-{3-[7-(1H-pyrazol-4-yl)-1,6-naphthyridin-5-yl]-1H-pyrazol-1-yl}cyclobutanecarbonitrile]: the IC50 was 0.174 µM in assay [1], 0.24 µM in assay [2], more than 10 µM in assay [3] and 0.022 µM in assay [4].
As for `N#CC[C@]1(n2ccc(-c3nc(-c4cn[nH]c4)cc4ncccc34)n2)C[C@@H](c2ccn[nH]2)C1` [Example 85, [cis-3-(1H-pyrazol-5-yl)-1-{3-[7-(1H-pyrazol-4-yl)-1,6-naphthyridin-5-yl]-1H-pyrazol-1-yl}cyclobutyl]acetonitrile], the IC50 in assay [1] worked out at 0.103 µM; in assay [2], 0.166 µM; in assay [3] it was 5.24 µM; in assay [4], 0.03 µM.

The values above are taken from patent US11254668B2, “Pyrazolo[1,5-A]pyrazin-4-yl and related derivatives” (Pfizer Inc., priority 2017, dated 2022).
